From patent EP4722219A1 (Gan & Lee Pharmaceuticals Co., Ltd., priority 2023, dated 2024)

Experiments:
Type in all cases: cell-based
VCaP cells = experiment: Inhibition of VCaP cell proliferation (WST-8); conditions: Homo sapiens, 168 hours
Description: On the first day of the experiment, VCaP cells were seeded at a density of 15,000 cells/well in a 96-well plate using DMEM medium containing 10% fetal bovine serum, with 100µL of cell suspension per well, and cultured overnight in a cell incubator at 37°C and 5% CO2. On the second day, 100µL of the compound of the present invention and the positive control ARV-110 (source: Anaiji) prepared in culture medium at different concentrations were added to each well. The final concentration of the compound was 9 concentration points of 5-fold serial dilution starting from 10 µM. […] On the ninth day, the 96-well cell culture plate was removed and 1/10 volume of WST-8 (Beytime, C0040) reagent was added to each well. The absorbance at 450nm was measured using a microplate reader (TECAN, F50).

LNCaP cells = experiment: Inhibition of LNCaP cell proliferation (WST-8); conditions: Homo sapiens, LNCaP FGC cells, 96 hours
Description: The inhibitory activity of compounds disclosed in the present invention on LNCaP cell proliferation
The cells were cultured overnight in a 37°C, 5% CO2 cell incubator. […] The final concentration of the compound was 9 concentration points of 5-fold serial dilution starting from 10 µM. […] The cells were cultured in a cell culture incubator at 37°C and 5% CO2 for 96 hours. On the sixth day, the 96-well cell culture plate was removed, and 1/10 volume of WST-8 (Beytime, C0040) reagent was added to each well. The absorbance at 450 nm was detected using a microplate reader (TECAN, F50).

AR protein = target: T1, AR protein (Homo sapiens, UniProt P10275, T878A); experiment: AR protein degradation in LNCaP cells (Western blot); conditions: 8 hours; for percent AR protein degradation at a fixed concentration at 0.01 µM / Degradation of AR protein in LNCaP cells, 10 nM (%): 10 nM; for percent AR protein degradation at a fixed concentration at 0.1 µM / Degradation of AR protein in LNCaP cells, 100 nM (%): 100 nM
T1 construct: host or cells: LNCaP FGC
T1 sequence (P10275 1-920 T878A): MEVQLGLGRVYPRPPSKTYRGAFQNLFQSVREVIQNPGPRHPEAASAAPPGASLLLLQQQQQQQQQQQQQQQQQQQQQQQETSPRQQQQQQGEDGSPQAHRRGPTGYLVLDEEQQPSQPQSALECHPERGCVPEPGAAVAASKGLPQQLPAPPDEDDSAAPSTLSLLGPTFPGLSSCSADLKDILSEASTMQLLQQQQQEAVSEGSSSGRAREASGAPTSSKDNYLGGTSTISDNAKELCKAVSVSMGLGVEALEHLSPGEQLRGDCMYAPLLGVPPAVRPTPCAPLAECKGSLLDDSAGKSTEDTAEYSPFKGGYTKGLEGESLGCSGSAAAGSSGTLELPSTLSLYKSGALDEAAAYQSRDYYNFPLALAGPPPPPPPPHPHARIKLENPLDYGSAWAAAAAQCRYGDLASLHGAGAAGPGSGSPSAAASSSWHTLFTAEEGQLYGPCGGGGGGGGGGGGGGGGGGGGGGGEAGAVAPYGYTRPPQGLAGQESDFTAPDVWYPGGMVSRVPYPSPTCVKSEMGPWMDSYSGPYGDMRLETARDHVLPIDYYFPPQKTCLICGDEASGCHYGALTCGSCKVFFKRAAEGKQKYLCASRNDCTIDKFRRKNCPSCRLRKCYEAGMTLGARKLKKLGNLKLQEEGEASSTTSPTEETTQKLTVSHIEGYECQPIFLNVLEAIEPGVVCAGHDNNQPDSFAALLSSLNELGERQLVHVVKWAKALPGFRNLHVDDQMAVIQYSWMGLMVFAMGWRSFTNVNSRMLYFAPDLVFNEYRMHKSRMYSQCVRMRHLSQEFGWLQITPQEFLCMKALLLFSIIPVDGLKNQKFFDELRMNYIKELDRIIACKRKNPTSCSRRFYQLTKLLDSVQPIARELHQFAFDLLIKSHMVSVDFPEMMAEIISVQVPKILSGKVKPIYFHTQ
Description: At the same time, the corresponding solvent control was set and cultured for 8 hours. After 8 hours of culture, the culture medium was removed, the cells were washed with PBS, and RIPA lysis buffer containing 1% Protease Inhibitor Cocktail was added. After lysis and centrifugation, the total protein extract was obtained, and the protein concentration in the extract was detected by BCA method. Protein electrophoresis was performed using SDS-PAGE, and then the protein was transferred to a PVDF (Millipore Sigma catalog number PSRP010R5) membrane at a constant voltage of 100V for 60 minutes. The PVDF membrane was placed in a 5% milk powder 1 ×TBST solution and blocked at room temperature for 1 hour. […] The primary antibody solution was discarded and the PVDF membrane was washed with 1×TBST for 5 minutes each time, for three times. […] The secondary antibody solution was discarded and the PVDF membrane was washed with 1 ×TBST for 5 minutes each time, for three times. A dual-color infrared laser imaging system (Licor catalog number Odyssey CLX) was used for Western membrane imaging. The Image Studio software was used to analyze the grayscale of the bands. GAPDH protein bands were also detected for each sample as the reference. The AR protein degradation rate of the compound and the positive control sample was calculated based on the grayscale of the protein bands.

Structure (SMILES)	IC50 (VCaP cells) [µM]	IC50 (LNCaP cells) [µM]	percent AR protein degradation at a fixed concentration at 0.01 µM (AR protein) [%]	percent AR protein degradation at a fixed concentration at 0.1 µM (AR protein) [%]	Degradation of AR protein in LNCaP cells, 10 nM (%) (AR protein)	Degradation of AR protein in LNCaP cells, 100 nM (%) (AR protein)
COc1cc2c(cc1C(=O)N[C@H]1CCC(=O)NC1=O)OCC21CCN(CC2CCN(c3ccc(N4CCC5(CC4)C[C@H](C)N(c4ccc(C#N)c(Cl)c4)C5)cc3)CC2)CC1 [A-P-80, 1'-((1-(4-((S)-2-(3-chloro-4-cyanophenyl)-3-methyl-2,8-diazaspiro[4.5]decan-8-yl)phenyl)piperidin-4-yl)methyl)-N-((S)-2,6-dioxopiperidin-3-yl)-5-methoxy-2H-spiro[benzofuran-3,4'-piperidin]-6-carboxamide]	0.051	1.94	22	73	–	–
C[C@H]1CC2(CCN(c3ccc(C(=O)N4CCC(CN5CCN6c7ccc(C(=O)N[C@H]8CCC(=O)NC8=O)c(F)c7OC[C@H]6C5)CC4)cc3)CC2)CN1c1ccc(C#N)c(Cl)c1 [A-P-62, (R)-3-((1-(4-((S)-2-(3-chloro-4-cyanophenyl)-3-methyl-2,8-diazaspiro[4.5]decan-8-yl)benzoyl)piperidin-4-yl)methyl)-N-((S)-2,6-dioxopiperidin-3-yl)-7-fluoro-1,2,3,4,4a,5-hexahydrobenzo[b]pyrazi no[1,2-d][1,4]oxazine-8-carboxamide]	0.45	9.54	47	72	–	–
C[C@H]1CC2(CCN(c3ccc(N4CCC(CN5CC6(CCC7(CC6)COc6c7ccc7c6CN(C6CCC(=O)NC6=O)C7=O)C5)CC4)cc3)CC2)CN1c1ccc(C#N)c(Cl)c1 (stereo partly drawn) [A-P-6, 2-chloro-4-((3S)-8-(4-(4-((7'-(2,6-dioxopiperidin-3-yl)-6'-oxo-7',8'-dihydro-2'H,6'H-dipyrazole[azetidine-3,1'-cyclohexane-4',3'-furo[2,3-e]isoindol]-1-yl)methyl)piperidin-1-yl)phenyl)-3-methyl-2,8-diazaspiro[4.5]decan-2-yl)benzonitrile]	0.00016	1.02	–	–	58	60
CC1(C)[C@H](NC(=O)c2ccc(N3CCC(CN4CCN5c6ccc(C(=O)N[C@H]7CCC(=O)NC7=O)cc6OC[C@H]5C4)CC3)cc2)C(C)(C)[C@H]1Oc1ccc(C#N)c(Cl)c1 [A-P-77]	0.0055	0.44	–	–	20	62
C[C@H]1CC2(CCN(c3ccc(N4CCC(CN5CCN6c7ccc(C(=O)N[C@H]8CCC(=O)NC8=O)c(F)c7OC[C@H]6C5)CC4)cc3)CC2)CN1c1ccc(C#N)c(Cl)c1 [A-P-61, (R)-3-((1-(4-((S)-2-(3-chloro-4-cyanophenyl)-3-methyl-2,8-diazaspiro[4.5]decan-8-yl)phenyl)piperidin-4-yl)methyl)-N-((S)-2,6-dioxopiperidin-3-yl)-7-fluoro-1,2,3,4,4a,5-hexahydrobenzo[b]pyrazi no[1,2-d][1,4]oxazine-8-carboxamide]	0.19	0.21	24	79	–	–
N#Cc1cc2c(cc1Cl)CC1(CCN(c3ccc(C(=O)N4CCC(CN5CCC6(CCc7cc(C(=O)N[C@H]8CCC(=O)NC8=O)c(F)cc7O6)CC5)CC4)cc3)CC1)CO2 [A-P-51]	8.44	3.36	-23	12	–	–
C[C@H]1CC2(CCN(c3ccc(N4CCC(CN5CCC6(CC5)CCC5(CC6)COc6c5ccc5c6CN(C6CCC(=O)NC6=O)C5=O)CC4)cc3)CC2)CN1c1ccc(C#N)c(Cl)c1 (stereo partly drawn) [A-P-8, (S)-1'-((1-(4-(6-chloro-7-cyanospiro-spiro[tryptophan-3,4'-piperidin]-1'-yl)benzoyl)piperidin-4-yl)methyl)-N-(2,6-dioxopiperidin-3-yl)-7-fluoro-spiro[tryptophan-2,4'-pyridyl]-6-carboxamide]	0.005	0.2	-4	63	–	–
N#Cc1cc2c(cc1Cl)OC1(CCN(C(=O)c3ccc(N4CCC(CN5CCC6(CCc7cc(C(=O)N[C@H]8CCC(=O)NC8=O)c(F)cc7O6)CC5)CC4)cc3)CC1)CO2 [A-P-53, (S)-1'-((1-(4-(7-chloro-6-cyano-3H-spiro[benzo[b][1,4]dioxane-2,4'-piperidin]-1'-carbonyl)phenyl)piperidin-4-yl)methyl)-N-(2,6-dioxopiperidin-3-yl)-7-fluorospiro[chroman-2,4'-piperidin]-6-carboxamide]	1.32	0.14	-11	-3	–	–
COc1cc2c(cc1C(=O)N[C@H]1CCC(=O)NC1=O)C1(CCN(CC3CCN(C(=O)c4ccc(N5CCC6(CC5)C[C@H](C)N(c5ccc(C#N)c(Cl)c5)C6)cc4)CC3)CC1)CO2 [A-P-82, 1'-((1-(4-((S)-2-(3-chloro-4-cyanophenyl)-3-methyl-2,8-diazaspiro[4.5]decan-8-yl)benzoyl)piperidin-4-yl)methyl)-N-((S)-2,6-dioxohesperidin-3-yl)-6-methoxy-2H-spiro[benzofuran-3,4'-piperidin]-5-carboxamide]	0.049	15.7	55	83	–	–
N#Cc1cc2c(cc1Cl)OCC1(CCN(C(=O)c3ccc(N4CCC(CN5CCC6(CCc7cc(C(=O)N[C@H]8CCC(=O)NC8=O)c(F)cc7O6)CC5)CC4)cc3)CC1)O2 [A-P-44, (S)-1'-((1-(4-(6-chloro-7-cyano-3H-spiro[benzo[b][1,4]dioxane-2,4'-piperidin]-1'-carbonyl)phenyl)piperidin-4-yl)methyl)-N-(2,6-dioxopiperidin-3-yl)-7-fluorospiro[chroman-2,4'-piperidin]-6-carboxamide]	2.89	0.24	20	9	–	–
COc1cc(O[C@H]2C(C)(C)[C@H](NC(=O)c3ccc(N4CCC(CN5CCN6c7cc(F)c(C(=O)N[C@H]8CCC(=O)NC8=O)cc7OC[C@H]6C5)CC4)cc3)C2(C)C)ccc1C#N [A-P-63]	0.39	0.24	–	–	27	68
N#Cc1cc2c(cc1Cl)OC1(CCN(c3ccc(C(=O)N4CCC(CN5CCC6(CCc7cc(C(=O)N[C@H]8CCC(=O)NC8=O)c(F)cc7O6)CC5)CC4)cc3)CC1)CO2 [A-P-46, (S)-1'-((1-(4-(7-chloro-6-cyano-3H-spiro[benzo[b][1,4]dioxo-2,4'-piperidin]-1'-yl)benzoyl)piperidin-4-yl)methyl)-N-(2,6-dioxopiperidin-3-yl)-7-fluorospiro[chroman-2,4'-piperidin]-6-carboxamide]	3.75	0.89	4	15	–	–
